Measured values: patent publication US6638509B1, “Toxin conjugates” (Kyowa Hakko Kogyo, Co., Ltd., priority 1995, dated 2003)

System: Human myeloma SK-Ly-18 cells
Experiment: Therapeutic effect on transplanted tumor in nude mice (Test Example 4)
Format: in vivo, BALB/C nu/nu mice
Settings: intravenous, amount corresponding to 7.5 mg/kg ADM, on the 7th day after transplantation, compared with control group, FIG. 2
Description: Human myeloma SK-Ly-18 cells were suspended in RPMI-1640 medium containing 10% fetal calf serum at a concentration of 2×10^8 cells/ml, and the suspension was mixed with Matrigel (registered trademark; Becton Dickinson Labware, USA) in the ratio of 1:1 (v/v). The mixture (0.1 ml, 1×10^7 cells/mouse) was subcutaneously transplanted into BALB/C nu/nu mice (Clea Japan, Inc.). On the 7th day after the tumor transplantation, a drug-monoclonal antibody conjugate (amount corresponding to 7.5 mg/kg ADM) or ADM (7.5 mg/kg) was intravenously administered to the mice divided in groups each consisting of 5. A control group was given physiological saline in the same manner. The major axis and the minor axis of tumor were measured at intervals, and the tumor volume was calculated as an approximation value of an ellipsoid according to the following equation.
Tumor Volume (mm^3)=(a×b^2)/2
a: major axis (mm) b: minor axis (mm)
The therapeutic effect on the transplanted tumor was evaluated in terms of V/V0, the ratio of the tumor volume on the day of evaluation (V) to that on the day of drug administration (V0).

COc1cccc2c1C(=O)c1c(O)c3c(c(O)c1C2=O)C[C@@](O)(C(=O)CO)C[C@@H]3O[C@H]1C[C@H](N)[C@H](O)[C@H](C)O1 [ADM, Adriamycin, reference compound]
tumor growth inhibiting effect (V/V0): a growth inhibiting effect was not observed
